The record followed here is patent US6280725A, “Compositions and methods for inhibiting the growth of fungi” (Lipton, division of Conopco, Inc., priority 2000, dated 2001).

Each structure is given as a SMILES string.

What all share (format): cell-based
The subject of experiment [1] is Saccharomyces cerevisiae wild type strain SU-50. Nature of the experiment: Growth inhibition (growth curves) of wild type yeast SU-50. Conditions: for effect on growth of SU50: 25 mM sugar with 25 μM MB21, 100 cells per ml, vs reference and MB21 alone, effect if any, FIG. 5a. How it is done:
(§1) For examples 2, and 4-9 grow-curves were recorded at 25° C. using a microbiology growth reader (Bioscreen C, ex Labsystems). For example 3, growth curve was determined as turbidity, measured by hand at a wave length of 660 nm (OD 660).
a) Saccharomyces cerevisiae strain SU-50 was cultivated in YEPD medium, supplemented with 2% glucose.
b) Growth curves were obtained with the strain SU-50. The cells (about 10 per ml) were cultured in YEPD at 25° C. in the presence or absence of β-gentiobiose or pustulan fragments and MB-21, by using a 24 well plate at room temperature with continuous shaking on a micro-titre plate shaker (mark 4) or a microbiology growth reader (Bioscreen C).
Three YEPD media were prepared, one without MB21, the other YEPD media contained 10 μM MB21 and 20 μM MB21, respectively. To these media β-gentiobiose was added in concentrations of 0, 50, 100 and 200 mM. The yeast strain SU50 was inoculated in these media in a concentration of 10 cells per ml, and cultivated in a 24 well plate at 25° C. Samples were taken from a 24 well plate at regular time intervals, diluted sixty times with distilled water and measured at 660 nm to construct the growth curves.
This example illustrates a relationship between the length of the β-(1,6)-glucan fragments and their effectiveness in competition.
(§2) In this example, three strains are grown in various media in the fashion of example 3, with the exception of being inoculated in the media in a concentration of 100 cells per ml. The sugars used are all comparatives: laminaribiose (β-1,3)-linked D-glucose), sucrose (having a 1,2 link), and sorbitol.
In this example, strain SU 50 was grown three media (see table 2) in the fashion of example 3, with the exception of being inoculated in the media in a concentration of 100 cells per ml.

The test system of experiment [2] is Zygosaccharomyces bailii G1. Nature of the experiment: Growth curves / relative inhibition of strain G1. Conditions: 200 mM sugar with 6 μM MB21, 100 cells per ml, vs reference and MB21 alone; effect if any; FIG. 5c. On the procedure: as §1
d) Zygosaccharomyces bailii G1: as SU-50 above.
as §2
In this example, strain G1 was grown three media (see table 4) in the fashion of example 3, with the exception of being inoculated in the media in a concentration of 100 cells per ml.
In this example, strain G1 was grown in the fashion of example 3 (with the exception of being inoculated in the media in a concentration of 100 cells per ml) in the presence of 6 μM MB21 and 50 mM of a β-(1,6)-glucan. Experiments were done with short-chain β-(1,6)-glucan of variable chain length.

Experiment [3] relates to Zygosaccharomyces bailii ZB (NCYC 563). The experiment in a line: Growth curves of strain ZB. Conditions: 200 mM sugar with 6 μM MB21, 100 cells per ml, vs reference and MB21 alone; effect if any; FIG. 5b. On the procedure: as §1
c) Zygosaccharomyces bailii ZB: as SU-50 above.
as §2
In this example, strain ZB was grown three media (see table 3) in the fashion of example 3, with the exception of being inoculated in the media in a concentration of 100 cells per ml.

In experiment [4] the test system is Saccharomyces cerevisiae strain SU52-pUR5801. Nature of the experiment: Cell wall protein release test (α-galactosidase-CWP2p secretion into medium). Conditions: FIG. 1. How it is done:
b) Saccharomyces cerevisiae strain SU52-pUR5801 was cultivated in Difco yeast nitrogen base (YNB), supplemented with 2% glucose and 0.004% histidine. After the culture had reached the late log-phase, the cells were cultivated further (a 10% inoculum) in YEPD medium, consisting of 1% Difco yeast extract, 2% Bacto-peptone, supplemented with 0.5% glucose and 5% galactose.
a) Saccharomyces cerevisiae strain SU52-pUR 5801 was grown in YNB and YEPD media, at 30° C. with shaking at 225 rpm in an orbital incubator until a OD (660 nm) between 5 and 6 was reached. In parallel experiments several concentrations of β-gentiobiose or pustulan fragments were included in the media. After cultivation, the media were separated from the cells by centrifugation (10.000×g for 15 min at 4° C.). The media were then filtered using […] filters. Secretion of α-(-galactosidase-CWP2p was assessed by measuring α-(-galactosidase enzyme activity in the media (see further on). […]
β-Gentiobiose was dissolved in YEPD media supplemented with 5% galactose, in concentrations of 10, 50 and 100 mM respectively. […] The enzyme activity of the fusion protein CWP2-α-galactosidase was measured as described in the α-galactosidase assay.

As to `OC[C@H]1O[C@@H](O[C@H]2[C@H](O)[C@@H](CO)OC(O)[C@@H]2O)[C@H](O)[C@@H](O)[C@@H]1O` (stereo partly shown) [laminaribiose], the “effect on growth of SU50” value in experiment [1] was “stimulating effect”.
For the compound `OC[C@@H](O)[C@@H](O)[C@H](O)[C@@H](O)CO` [sorbitol], the “effect on growth of SU50” value in experiment [1] is on record as “stimulating effect”. The “effect on growth of G1” value in experiment [2] is given as “stimulating effect”. Besides, in experiment [3], the “effect on growth of ZB” value is “stimulating effect”.
`OC[C@H]1O[C@@](CO)(O[C@H]2O[C@H](CO)[C@@H](O)[C@H](O)[C@H]2O)[C@@H](O)[C@@H]1O` [sucrose]: in experiment [1], the “effect on growth of SU50” value is on record as “stimulating effect”. Besides, the “effect on growth of G1” value in experiment [2] is on record as “stimulating effect”. For the same compound, the “effect on growth of ZB” value in experiment [3] is listed as “stimulating effect”.
In the case of `OC[C@H]1O[C@@H](OC[C@H]2O[C@@H](O)[C@H](O)[C@@H](O)[C@@H]2O)[C@H](O)[C@@H](O)[C@@H]1O` [β-gentiobiose, 6-O-β-glucopyranosyl-β-D-glucose], the “influence on the growth of SU-50” value in experiment [1] (β-gentiobiose as such (0, 50, 100, 200 mM, no MB21), 10 cells per ml, 25° C., OD 660, FIG. 3) was “no influence”. The “relationship between concentration and secretion of the fusion construct” value in experiment [4] (at least up to 100 mM β-gentiobiose) was “linear relationship”. For the same compound, in experiment [4] (β-gentiobiose 10, 50 and 100 mM in YEPD with 5% galactose, 30° C., 18 hours), the “secretion (release) of the fusion protein α-galactosidase-CW2p from the cell wall” value was “concentration dependent”.
